Experimental data taken from patent US9868763B2, “Modulators of protease activated receptors” (The University of Queensland, priority 2011, dated 2018).
Entries after “also recorded” stand apart in the source; their conditions may differ.

What was measured:
β-tryptase = target: T1, β-tryptase (Homo sapiens, UniProt Q15661); assay: Tryptase activity assay; assay type: biochemical; conditions: 20 μM; substrate tosyl-Gly-Pro-Arg-pNA
T1 construct: purchased Promega
Description: β-tryptase (10 ng/μL, 100 μL) was incubated±PAR2 antagonist 52 (20 μM) for 15 min, to which substrate tosyl-Gly-Pro-Arg-pNA (250 μM) was added. Absorbance was measured as optical density at 405 nm (FLUOstar Optima, BMG labtech, Aust.) every 41 s for 1 h.

[1] = system: β-tryptase-induced paw oedema; assay: β-tryptase-induced paw oedema; assay type: in vivo, Wistar rat
Description: Based on previous methods (Kelso E B et al., J Pharmacol Exp Ther 2006, 316(3):1017-24; Suen J Y et al., Br J Pharmacol 2011, doi: 10.1111/j.1476-5381.2011.01610.x.), PAR2 antagonist 52 (10 mg/kg s.c.; n=4), ENMD-1068 (100 mg/kg s.c.; n=4) or vehicle control (DMSO s.c.; n=2) were administered to male Wistar rats. Baseline paw thickness and width were measured using digital calipers (World Precision Instruments, USA) expressed in area (mm^2; thickness×width). Fifteen minutes later, 2Furoyl-LIGLRO-NH2 (350 μg/paw in 100 μL saline) was injected into of the right hind paw pad (intraplantar, i.pl.). The left hind paw acted as a control, receiving saline only. In a separate experiment, vehicle (500 μL olive oil) versus PAR2 antagonist 52 (10 mg/kg p.o. in 500 μL olive oil) only were administered orally to two groups of rats (4 per group). Two hours later, β-tryptase (human recombinant lung, 20 μg in 100 μL saline) was injected into the right hind paw pad (vehicle in left for control) of all animals in each group. In all experiments, paw swelling was measured and expressed in area (mm^2; thickness×width) and plotted as % change from baseline of each individual paw.

[2] = system: collagen-induced arthritis; assay: Collagen-induced arthritis; assay type: in vivo, Wistar rat
Description: Protocols were based on those described (Lin H S et al., Br J Pharmacol 2007, 150(7):862-72; Nishikawa M et al., Arthritis Rheum 2003, 48(9):2670-81). Female Wistar rats (200-250 g, n′ 14) were immunised on Day 0 with Bovine nasal collagen (200 μg, 50:50 0.05 M acetic acid and Freund's incomplete adjuvant, s.c. tail base). Sham animals received vehicle only (no collagen; 50:50 0.05 M acetic acid and Freund's incomplete adjuvant, s.c. tail base). Boosters of the same dose were given on Day 7. Daily oral dosage of PAR-2 antagonist 52 (10 mg/kg in olive oil, 500 μL, p.o. weight adjusted) or olive oil vehicle (arthritic control, and sham) began on Day 7. Paw thickness and width (as above), body weight, disease activity score and mechanical nociceptive thresholds were measured every second day from Day 10-28.
Disease Activity Index (DAI) and mechanical hyperalgesia were assessed and qualitatively scored 0 to 4+. The DAI is based on multiple characteristic disease pathologies, incorporating changes in mobility, inflammation and discomfort/pain (maximum total score of 18). Plantar mechanical nociceptive thresholds were measured using Semmes Weinstein Von Frey Anaesthesiometers (Touch Test Sensory Evaluators, Stoelting, Ill., USA).
Day 28 all rats were euthanised and hind paws fixed in 4% paraformaldehyde, decalcified and embedded in paraffin wax and cut at […]. Sections were stained with H&E for general tissue architecture, with Masson's Trichrome for collagen loss or with alcian blue/safranin-O for mast cells (42). Tissue macrophages were labeled using ED1 monoclonal antibody (for immature rat macrophage/monocytes, Serotec) using standard IHC techniques. Microscopic analysis and cell counts were made from multiple (>6) images/paw with aid of ImageJ 1.42q software.

[3] = system: SLIGRL-NH2-induced acute colonic inflammation; assay: PAR2-induced acute colonic inflammation; assay type: in vivo, Wistar rat; conditions: 10 mg/kg p.o.
Description: A polyethylene catheter (1.7-mm outer diameter) was inserted 8 cm into the colon via the anus, through which SLIGRL-NH2 (1 mg/rat) or saline vehicle (500 l) was administered. Rats remained anesthetized for 10 min and maintained at an angle of 40° to prevent leakage from the anus. Rats were allowed to recover with food and water supplied. All rats were terminated at 10 h after induction and scored appropriately for disease activity index (DAI) and macroscopic disease (see Disease Activity Index below). Colon tissue was taken for wet/dry ratio and MPO assay.
DAI for both acute and chronic models was assessed and scored by an expert blinded to treatments. Scores incorporated mobility, gastrointestinal pathology, discomfort, and generalized sickness behaviour criteria (each scored 0-3). Any animal that reached stage 3 in any criteria was euthanized by CO2 inhalation and recorded as a disease-related mortality. Scores were summed and expressed as total disease score (maximum 12). DAI was measured at endpoint only (10 h) in the acute study and daily in the chronic TNBS study.
Colons were dissected post-mortem and given a macroscopic disease score based on that described previously (Bobin-Dubigeon et al., 2001) with some minor alterations (maximal score 14). The entire colon length was removed between the ileocolic and colorectal junction. Length and maximal distension width were measured. […]

[4] = alcian blue/safranin-O staining

T1 sequence (Q15661 31-275): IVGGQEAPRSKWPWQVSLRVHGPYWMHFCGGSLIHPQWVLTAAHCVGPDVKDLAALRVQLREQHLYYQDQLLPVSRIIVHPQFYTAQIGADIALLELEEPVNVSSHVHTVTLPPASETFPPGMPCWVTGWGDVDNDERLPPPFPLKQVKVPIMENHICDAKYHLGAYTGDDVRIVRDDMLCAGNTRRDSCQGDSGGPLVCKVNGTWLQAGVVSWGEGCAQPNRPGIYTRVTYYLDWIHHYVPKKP

CC[C@H](C)[C@@H](NC(=O)[C@H](CC1CCCCC1)NC(=O)c1ccno1)C(=O)N1CCC2(C=Cc3ccccc32)CC1 [Compound 52]
inhibition of proteolytic activity of β-tryptase (β-tryptase): did not inhibit; also recorded: not inhibited | paw oedema induced by β-tryptase ([1]; 10 mg/kg p.o. in olive oil, β-tryptase 20 μg/paw 2 h later): reduced paw oedema; also recorded: prevented the oedema; also recorded: strongly inhibited | β-tryptase-induced mast cell degranulation in the extrasynovium ([1]; 10 mg/kg pretreatment): ameliorated; also recorded: prevented | collagen-induced rat arthritis ([2]; 10 mg/kg/day p.o.): attenuated collagen-induced rat arthritis | lowered mechanical nociceptive threshold (mechanical hyperalgesia) ([2]; 10 mg/kg/day p.o., Day 28): prevented the mechanical hyperalgaesia; also recorded: removed | maximal hind paw swelling ([2]; 10 mg/kg/day p.o., Day 28, change from baseline): 25±9% | maximal DAI (disease activity index) ([2]; 10 mg/kg/day p.o., Day 28, maximum total score 18): 1.6±0.9 | animals affected by arthritic signs ([2]; 10 mg/kg/day p.o., by Day 28): 60% | degranulated mast cells of all mast cells [2, 4]: less than 5% | inactive mast cells of all mast cells [2, 4]: ~80% | collagen loss (Masson's Trichrome) ([2]; compared to CIA-controls): significantly reduced collagen loss | histopathological changes (H&E, tibia-talus joints) ([2]; daily administration): almost completely prevented | arthritic-like up regulation of ED1-macrophages ([2]; rat, in vivo): prevented | acute colonic inflammation induced by SLIGRL-NH2 [3]: inhibited | edema, mucin depletion, PAR2 receptor internalization and mastocytosis [3]: markedly reduced
